Data as given in US11464763B2, “Parasiticidal compositions comprising an isoxazoline active agent, methods and uses thereof” (BOEHRINGER INGELHEIM ANIMAL HEALTH USA INC., priority 2011, dated 2022).
In brackets after ≈: the same amount, converted by molar mass.

How the values were obtained:
[1] = system: Ctenocephalides felis; assay: Spot-on efficacy at 1 mg/kg against Ctenocephalides felis fleas in cats (Example 7); type: in vivo; details: for efficacy against fleas: Group 2 (DMI)
Experimental: The efficacy of several spot-on formulations comprising Cmpd. A dosed at 1 mg/kg body weight in different carrier vehicles against fleas in cats was studied. Five cats each were allocated to 6 Treatment Groups. The […] per study group were subjected to weekly infestations followed by 24 h flea counts for 5 to 8 weeks, according to the following Group allocations: Group 1—untreated control; Group 2-1.0% (w/v) Cmpd. A in DMI; Group 3-1.0% (w/v) Cmpd. A in diethyl sebacate (DES); Group 4-1.0% (w/v) Cmpd. A in 9% lauryl lactate+DES; Group 5—1% (w/v) Cmpd. A in 8% ethyl oleate+DES; and Group 6-1% (w/v) Cmpd. A in a vehicle comprising Transcutol®+10% (w/v) ethanol+5% polyvinylpyrrolidone+5% TWEEN 80. Cats were infested with approximately 100 C. felis on Day −1 and treated on Day 0 with the corresponding spot-on formulation by application of the formulation directly on the skin in the midline of the neck, between the base of the skull and the shoulder blades in a single spot using a 1 mL syringe. Twelve hours after treatment, fleas were removed and counted. The cats were immediately re-infested with approximately 100 fleas. Fleas were removed and counted on Day 1 at approximately 24 hours post-treatment. Cats were also infested with fleas on Days 7, 21, […], 35, 42 and 49. Fleas were removed and counted approximately 24 hours after infestation on Days 8, 22, 29, 36, 43 and 50.

[2] = system: A. americanum; assay: Efficacious plasma concentration (EC90) against A. americanum ticks in dogs (Example 13); type: in vivo, Amblyomma americanum; details: for EC90 (concentration required to achieve 90% efficacy): plasma concentration
Experimental: Blood samples were collected from all dogs on Days −5, 0 (at 4 h and 12 h), 1, 2, 9, 16, 23, 30, 37 and 44. Plasma samples were analyzed for the concentration of Compound A using a LC/MS/MS method that was GLP validated for the analysis of the compound.
Plasma concentrations of Compound A from dogs in the studies of Examples 1 and 4 were determined according to the description in Example 1, and the plasma concentration versus % efficacy against A. americanum and D. variabilis were fit to a Sigmoidal Emax model. […] Since Compound A is systemically active, the lower concentration of the compound in the plasma required to achieve 90% efficacy from the topical compositions of the invention is surprising and unexpected.

[3] = system: R. sanguineus; assay: Efficacious plasma concentration (EC90) against R. sanguineus ticks in dogs (Example 13); type: in vivo, Rhipicephalus sanguineus; details: for EC90 (concentration required to achieve 90% efficacy): plasma concentration
[4] = system: Sarcoptes scabiei var. bovis; assay: Pour-on efficacy against Sarcoptes scabiei var. bovis (mange mites) in cattle (Example 17); type: in vivo; details: for % Reduction: live mite counts in scrapings
Experimental: The efficacy of two pour-on formulations of the invention comprising isoxazoline Compound A at doses of 2.5 mg/kg and 10 mg/kg were tested against natural and induced infestations with Sarcoptes scabiei var. bovis (mange mites) in cattle compared with an untreated control. Four healthy head of cattle weighing between 100 to 300 kg were used in each study group. Cattle in Group 1 were untreated (control). Cattle in Group 2 were treated on Day 0 with a pour-on formulation comprising Compound A at a concentration of 2.5% (w/v) in DES at a dose of 2.5 mg/kg; and cattle in Group 3 were treated on Day 0 with a pour-on formulation comprising Compound A at a concentration of 10% (w/v) in DES at a dose of 10 mg/kg. The formulation was applied by measuring the required amount of the solution into a marked disposable syringe and applying the material evenly along the mid-line of the back of each animal from the withers to the tail head.
Live (motile) Sarcoptes scabiei var. bovis (mange mites) were counted on days 7, 14, 20, 27, 34, 41, 48 and 55 in scrapings collected from the edges of active lesions or, if lesions regressed during the study, from the area where active lesions were at the commencement of the study. Scrapings were made from six sites with an area of at least 3 cm×3 cm in size on each animal. Tables 18A and 18B below show the efficacy of the two pour-on formulations against Sarcoptes scabiei var. bovis over 56 days. […] The long lasting efficacy of the pour-on formulations of the invention against Sarcoptes scabiei var. bovis from one topical treatment is unexpected and surprising.

[5] = system: Haematobia irritans; assay: Pour-on efficacy against Haematobia irritans (horn fly) in cattle (Example 14); type: in vivo; details: Group 2: pour-on 10% in DES, 1 ml/10 kg

O=C(CNC(=O)c1ccc(C2=NOC(c3cc(Cl)cc(C(F)(F)F)c3)(C(F)(F)F)C2)c2ccccc12)NCC(F)(F)F (stereo not drawn) [Compound A, 4-[5-[3-chloro-5-(trifluoromethyl)phenyl]-4,5-dihydro-5-(trifluoromethyl)-3-isoxazolyl]-N-[2-oxo-2-[(2,2,2-trifluoroethyl)amino]ethyl]-1-naphthalanecarboxamide]
efficacy against fleas ([1]; until Day 50): above 85% | efficacy against fleas ([1]; until at least Day 43): above 90% | % Reduction ([1]; Group 2: 1.0% in DMI, 1 mg/kg, Day 0 (12 hr)): 22.3% | % Reduction ([1]; Group 2: 1.0% in DMI, 1 mg/kg, Day 1): 28.0% | % Reduction ([1]; Group 2: 1.0% in DMI, 1 mg/kg, Day 8): 99.3% | % Reduction ([1]; Group 2: 1.0% in DMI, 1 mg/kg, Day 22): 99.5% | % Reduction ([1]; Group 2: 1.0% in DMI, 1 mg/kg, Day 29): 98.5% | % Reduction ([1]; Group 2: 1.0% in DMI, 1 mg/kg, Day 36): 94.2% | % Reduction ([1]; Group 2: 1.0% in DMI, 1 mg/kg, Day 43): 94.3% | % Reduction ([1]; Group 2: 1.0% in DMI, 1 mg/kg, Day 50): 87.7% | % Reduction ([1]; Group 3: 1.0% in DES, 1 mg/kg, Day 0 (12 hr)): 9.6% | % Reduction ([1]; Group 3: 1.0% in DES, 1 mg/kg, Day 1): 72.7% | % Reduction ([1]; Group 3: 1.0% in DES, 1 mg/kg, Day 8): 99.7% | % Reduction ([1]; Group 3: 1.0% in DES, 1 mg/kg, Day 22): 97.4% | % Reduction ([1]; Group 3: 1.0% in DES, 1 mg/kg, Day 29): 95.1% | % Reduction ([1]; Group 3: 1.0% in DES, 1 mg/kg, Day 36): 79.3% | % Reduction ([1]; Group 3: 1.0% in DES, 1 mg/kg, Day 43): 72.2% | % Reduction ([1]; Group 3: 1.0% in DES, 1 mg/kg, Day 50): 44.8% | % Reduction ([1]; Group 4: 1.0% in 9% lauryl lactate+DES, 1 mg/kg, Day 0 (12 hr)): 9.2% | % Reduction ([1]; Group 4: 1.0% in 9% lauryl lactate+DES, 1 mg/kg, Day 1): 36.5% | % Reduction ([1]; Group 4: 1.0% in 9% lauryl lactate+DES, 1 mg/kg, Day 8): 99.7% | % Reduction ([1]; Group 4: 1.0% in 9% lauryl lactate+DES, 1 mg/kg, Day 22): 98.5% | % Reduction ([1]; Group 4: 1.0% in 9% lauryl lactate+DES, 1 mg/kg, Day 29): 98.1% | % Reduction ([1]; Group 4: 1.0% in 9% lauryl lactate+DES, 1 mg/kg, Day 36): 89.3% | % Reduction ([1]; Group 4: 1.0% in 9% lauryl lactate+DES, 1 mg/kg, Day 43): 92.7% | % Reduction ([1]; Group 4: 1.0% in 9% lauryl lactate+DES, 1 mg/kg, Day 50): 79.2% | % Reduction ([1]; Group 5: 1% in 8% ethyl oleate+DES, 1 mg/kg, Day 0 (12 hr)): 65.9% | % Reduction ([1]; Group 5: 1% in 8% ethyl oleate+DES, 1 mg/kg, Day 1): 77.2% | % Reduction ([1]; Group 5: 1% in 8% ethyl oleate+DES, 1 mg/kg, Day 8): 98.4% | % Reduction ([1]; Group 5: 1% in 8% ethyl oleate+DES, 1 mg/kg, Day 22): 96.9% | % Reduction ([1]; Group 5: 1% in 8% ethyl oleate+DES, 1 mg/kg, Day 29): 95.0% | % Reduction ([1]; Group 5: 1% in 8% ethyl oleate+DES, 1 mg/kg, Day 36): 85.5% | % Reduction ([1]; Group 5: 1% in 8% ethyl oleate+DES, 1 mg/kg, Day 43): 79.7% | % Reduction ([1]; Group 5: 1% in 8% ethyl oleate+DES, 1 mg/kg, Day 50): 64.0% | % Reduction ([1]; Group 6: 1% in Transcutol+10% ethanol+5% polyvinylpyrrolidone+5% TWEEN 80, 1 mg/kg, Day 0 (12 hr)): 17.7% | % Reduction ([1]; Group 6: 1% in Transcutol+10% ethanol+5% polyvinylpyrrolidone+5% TWEEN 80, 1 mg/kg, Day 1): 75.6% | % Reduction ([1]; Group 6: 1% in Transcutol+10% ethanol+5% polyvinylpyrrolidone+5% TWEEN 80, 1 mg/kg, Day 8): 100.0% | % Reduction ([1]; Group 6: 1% in Transcutol+10% ethanol+5% polyvinylpyrrolidone+5% TWEEN 80, 1 mg/kg, Day 22): 99.3% | % Reduction ([1]; Group 6: 1% in Transcutol+10% ethanol+5% polyvinylpyrrolidone+5% TWEEN 80, 1 mg/kg, Day 29): 97.5% | % Reduction ([1]; Group 6: 1% in Transcutol+10% ethanol+5% polyvinylpyrrolidone+5% TWEEN 80, 1 mg/kg, Day 36): 93.8% | % Reduction ([1]; Group 6: 1% in Transcutol+10% ethanol+5% polyvinylpyrrolidone+5% TWEEN 80, 1 mg/kg, Day 43): 93.9% | % Reduction ([1]; Group 6: 1% in Transcutol+10% ethanol+5% polyvinylpyrrolidone+5% TWEEN 80, 1 mg/kg, Day 50): 79.6% | concentration required to achieve 90% efficacy, lower than the concentration required from oral administration ([2]; dogs, topical vs oral): about 42% | EC90 (concentration required to achieve 90% efficacy) ([2]; dogs, topical compositions, Sigmoidal Emax model): 0.092 µg/mL (≈ 0.147 µM) | EC90 (concentration required to achieve 90% efficacy) ([2]; oral dosage form): 0.158 µg/mL (≈ 0.252 µM) | concentration required to achieve 90% efficacy, lower than the concentration required from oral administration ([3]; dogs, topical vs oral): ~32% | EC90 (concentration required to achieve 90% efficacy) ([3]; oral dosage form): 0.101 µg/mL (≈ 0.161 µM) | EC90 (concentration required to achieve 90% efficacy) ([3]; topical, separate study): 0.069 µg/mL (≈ 0.11 µM) | efficacy against Sarcoptes scabiei var. bovis ([4]; 10% (w/v) formulation, day 14 through day 55): 100% | efficacy against Sarcoptes scabiei var. bovis ([4]; both pour-on formulations, starting on day 7 through at least day 56): higher than 95% | % Reduction ([4]; Group 2: pour-on 2.5% (w/v) in DES, 2.5 mg/kg, Day 7): 96.7% | % Reduction ([4]; Group 2: pour-on 2.5% (w/v) in DES, 2.5 mg/kg, Day 14): 98.2% | % Reduction ([4]; Group 2: pour-on 2.5% (w/v) in DES, 2.5 mg/kg, Day 20): 99.6% | % Reduction ([4]; Group 2: pour-on 2.5% (w/v) in DES, 2.5 mg/kg, Day 27): 100% | % Reduction ([4]; Group 2: pour-on 2.5% (w/v) in DES, 2.5 mg/kg, Day 34): 100% | % Reduction ([4]; Group 2: pour-on 2.5% (w/v) in DES, 2.5 mg/kg, Day 41): 100% | % Reduction ([4]; Group 2: pour-on 2.5% (w/v) in DES, 2.5 mg/kg, Day 48): 100% | % Reduction ([4]; Group 2: pour-on 2.5% (w/v) in DES, 2.5 mg/kg, Day 55): 100% | % Reduction ([4]; second line of the table, "Group 2", pour-on in DES, Day 7): 96.8% | % Reduction ([4]; second line of the table, "Group 2", pour-on in DES, Day 14): 100% | % Reduction ([4]; second line of the table, "Group 2", pour-on in DES, Day 20): 100% | % Reduction ([4]; second line of the table, "Group 2", pour-on in DES, Day 27): 100% | % Reduction ([4]; second line of the table, "Group 2", pour-on in DES, Day 34): 100% | % Reduction ([4]; second line of the table, "Group 2", pour-on in DES, Day 41): 100% | % Reduction ([4]; second line of the table, "Group 2", pour-on in DES, Day 48): 100% | % Reduction ([4]; second line of the table, "Group 2", pour-on in DES, Day 55): 100% | efficacy against Sarcoptes scabiei var. bovis ([4]; lower concentration pour-on formulation (Group 2), day 27 through the end of the study): 100% | % Reduction ([5]; Day 35 (5 h)): 42.6% | % Reduction ([5]; Day 36 (24 h)): 90.4%
